Data reported in US20250144077A1, “DOSAGE REGIMEN FOR THROMBOPOIETIN RECEPTOR AGONIST” (JIANGSU HENGRUI PHARMACEUTICALS CO., LTD., priority 2022, published 2025).
Where two headings read alike, the source gives them in different places.

Experiments:
[1] = Safety and adverse events after single 7.5 mg oral dose (CTCAE5.0 grading); format: in vivo, human
Experimental: (§1) All the subjects in each group underwent PK, PD, and safety index collection following the administration of the study drug on D1 according to the trial process chart, and comparative analysis was then performed between groups.
(§2) Prior to the day-1 administration (D-1), the subjects were required to fast for 10 h or more, though water intake was not prohibited. The following morning (D1), the subjects orally took, on an empty stomach, a 7.5 mg dose of herombopag diethanolamine tablets (comprised of one 2.5 mg tablet and one 5 mg tablet) with about 240 mL of warm water. Water intake was prohibited 1 h before and after the administration. The subjects had lunch about 4 h after the administration and had dinner about 10 h after the administration. The subjects were advised to remain seated within the 2 h after the administration and to avoid strenuous exercise and prolonged bed rest.
In this study, a total of 24 subjects were included, and all of them were included in a safety analysis set.
In this study, all drug-related AEs were graded according to CTCAE5.0. […] The adverse reactions mainly occurred in the hepatic impairment groups, and the incidence of adverse reactions in the moderate hepatic impairment group was relatively high, which may be attributed to the fact that these subjects had pre-existing liver diseases of varying degrees of severity and most of them already had abnormal baseline laboratory test results. These subjects recovered from all the adverse events without intervention.

[2] = Single-dose, open-label pharmacokinetics of herombopag in subjects with normal liver function, mild and moderate hepatic impairments; format: in vivo, human; details: for AUC0-t GLSM Ratio / AUC0-∞ GLSM Ratio / Cmax GLSM Ratio: ANOVA
Experimental: Example 1: Study of Pharmacokinetics and Safety of Trial Drug in Subjects with Mild Hepatic Impairments (Child-Pugh: Grade A), Moderate Hepatic Impairments (Child-Pugh: Grade B), and Normal Liver Function
Trial drug: tablets of herombopag diethanolamine salt, produced and provided by Jiangsu Hengrui, strengths: 2.5 mg/tablet and 5 mg/tablet.
This study is a single-dose, open-label trial designed to evaluate the pharmacokinetics of herombopag in subjects with normal liver function, mild hepatic impairments, and moderate hepatic impairments.
The severity of the hepatic functional impairments in the subjects was assessed using the Child-Pugh score (mild: grade A, a score of 5 or 6; moderate: grade B, a score of 7-9).
as §1
PK blood sampling time points: Venous blood samples of about 4 mL were collected from each subject within the 1 h prior to administration and at 0.5, 1, 2, 4, 6, 7, 8, 10, 12, 24, 48, 72, 96, and 120 h after administration. Blood sampling time windows: within the 60 min prior to administration; ±2 min for the 0.5 h-2 h after administration; ±5 min for the 4 h-12 h; ±15 min for the 24 h-120 h after administration.
as §2
Pharmacokinetic parameters of herombopag, including Tmax, Cmax, AUC0-t, AUC0-∞, t1/2, V/F, and CL/F, were calculated according to the actual sampling time points using a non-compartmental model (NCA) on Phoenix WinNonlin 8.1.

platelet counts = test: PD: platelet counts after administration compared to baseline; format: in vivo, human; details: all the groups; single 7.5 mg oral dose
Experimental: as §1

plasma protein = test: Plasma protein binding rate of herombopag in subjects with hepatic impairments; format: in vitro ADME, human
[3] = moderate hepatic impairment group, 5 subjects
[4] = Moderate vs. Normal (moderate/normal)
[5] = mild hepatic impairments compared with normal liver function
[6] = moderate hepatic impairments compared with normal liver function
[7] = single 7.5 mg oral dose, fasted, mild hepatic impairment (n = 8), GeoMean (% CVb)
[8] = single 7.5 mg oral dose, fasted, moderate hepatic impairment (n = 8), GeoMean (% CVb)
[9] = single 7.5 mg oral dose, fasted, normal liver function group (n = 8), GeoMean (% CVb)

Compound: CC1=NN(c2ccc3c(c2)CCCC3)C(=O)/C1=N\Nc1cccc(-c2ccc(C(=O)O)o2)c1O [herombopag, (Z)-5-(2-hydroxy-3-(2-(3-methyl-5-oxo-1-(5,6,7,8-tetrahydronaphthalen-2-yl)-1H-pyrazol-4(5H)-ylidene)hydrazino)phenyl)furan-2-carboxylic acid]
- incidence of AEs related to the study drug ([1]; all 24 subjects, 13 subjects, 25 events): 54.2%
- incidence of adverse events ([1]; all 24 subjects, 15 subjects, 29 events): 62.5%
- subjects with grade 1 drug-related AEs (CTCAE5.0) ([1]; all subjects, nine subjects): 37.5%
- subjects with grade 2 drug-related AEs (CTCAE5.0) ([1]; all subjects, seven subjects): 29.2%
- subjects with grade 2 drug-related AEs (CTCAE5.0) ([1]; mild hepatic impairment group, 1 subject, decreased neutrophil count): 12.5%
- subjects with grade 1 drug-related AEs (CTCAE5.0) ([1]; mild hepatic impairment group, 3 subjects): 37.5%
- incidence of AEs related to the study drug ([1]; mild hepatic impairment group, 4 subjects, 5 events): 50.0%
- subjects with grade 3 drug-related AEs (CTCAE5.0) ([1]; moderate hepatic impairment group, 1 subject): 12.5%
- subjects with grade 1 drug-related AEs (CTCAE5.0) [1, 3]: 62.5%
- subjects with grade 2 drug-related AEs (CTCAE5.0) [1, 3]: 62.5%
- incidence of AEs related to the study drug ([1]; moderate hepatic impairment group, 7 subjects, 18 events): 87.5%
- subjects with grade 1 drug-related AEs (CTCAE5.0) ([1]; normal liver function group, 1 subject): 25.0%
- subjects with grade 2 drug-related AEs (CTCAE5.0) ([1]; normal liver function group, 1 subject, hypertriglyceridemia): 12.5%
- incidence of AEs related to the study drug ([1]; normal liver function group, 2 subjects, 2 events): 25.0%
- safety and tolerability ([1]; single oral dose, normal liver function, mild and moderate hepatic impairments): safe and well tolerated
- AUC0-t GLSM Ratio ([2]; Mild vs. Normal (mild/normal)): 121.73%
- AUC0-∞ GLSM Ratio ([2]; Mild vs. Normal (mild/normal)): 120.16%
- Cmax GLSM Ratio ([2]; Mild vs. Normal (mild/normal)): 170.39%
- AUC0-t GLSM Ratio [2, 4]: 171.21%
- AUC0-∞ GLSM Ratio [2, 4]: 173.06%
- Cmax GLSM Ratio [2, 4]: 204.72%
- median time to peak, hepatic impairment groups versus normal liver function group ([2]; human, in vivo): smaller median time to peak
- AUC(0-t) ([2]; human, plasma, oral, 7.5 mg, geometric least squares mean, mild hepatic impairment group, n 8, read-out: AUC0-t GLSM): 1060 ng·h/mL
- AUC(0-inf) ([2]; human, plasma, oral, 7.5 mg, geometric least squares mean, mild hepatic impairment group, n 8, read-out: AUC0-∞ GLSM): 1120 ng·h/mL
- Cmax ([2]; human, plasma, oral, 7.5 mg, geometric least squares mean, mild hepatic impairment group, n 8, read-out: Cmax GLSM): 62.6 ng/mL
- AUC(0-t) ([2]; human, plasma, oral, 7.5 mg, geometric least squares mean, moderate hepatic impairment group, n 8, read-out: AUC0-t GLSM): 1500 ng·h/mL
- AUC(0-inf) ([2]; human, plasma, oral, 7.5 mg, geometric least squares mean, moderate hepatic impairment group, n 8, read-out: AUC0-∞ GLSM): 1610 ng·h/mL
- Cmax ([2]; human, plasma, oral, 7.5 mg, geometric least squares mean, moderate hepatic impairment group, n 8, read-out: Cmax GLSM): 75.3 ng/mL
- AUC(0-t) ([2]; human, plasma, oral, 7.5 mg, geometric least squares mean, normal liver function group, n 8, read-out: AUC0-t GLSM): 874 ng·h/mL
- AUC(0-inf) ([2]; human, plasma, oral, 7.5 mg, geometric least squares mean, normal liver function group, n 8, read-out: AUC0-∞ GLSM): 929 ng·h/mL
- Cmax ([2]; human, plasma, oral, 7.5 mg, geometric least squares mean, normal liver function group, n 8, read-out: Cmax GLSM): 36.8 ng/mL
- half-life ([2]; human, plasma, po, 7.5 mg, single 7.5 mg oral dose, empty stomach, mild hepatic impairments (Child-Pugh: grade A), read-out: arithmetic mean of t1/2 (converted)): 32.3 h
- AUC(0-t) ([2]; human, plasma, po, 7.5 mg, single 7.5 mg oral dose, empty stomach, mild hepatic impairments (Child-Pugh: grade A), read-out: geometric mean of AUC0-t): 1060 ng·h/mL
- AUC(0-inf) ([2]; human, plasma, po, 7.5 mg, single 7.5 mg oral dose, empty stomach, mild hepatic impairments (Child-Pugh: grade A), read-out: geometric mean of AUC0-∞): 1120 ng·h/mL
- Tmax ([2]; human, plasma, po, 7.5 mg, single 7.5 mg oral dose, empty stomach, mild hepatic impairments (Child-Pugh: grade A), read-out: median of Tmax): 2 h
- half-life ([2]; human, plasma, po, 7.5 mg, single 7.5 mg oral dose, empty stomach, moderate hepatic impairments (Child-Pugh: grade B), read-out: arithmetic mean of t1/2 (converted)): 36.3 h
- AUC(0-t) ([2]; human, plasma, po, 7.5 mg, single 7.5 mg oral dose, empty stomach, moderate hepatic impairments (Child-Pugh: grade B), read-out: geometric mean of AUC0-t): 1580 ng·h/mL
- AUC(0-inf) ([2]; human, plasma, po, 7.5 mg, single 7.5 mg oral dose, empty stomach, moderate hepatic impairments (Child-Pugh: grade B), read-out: geometric mean of AUC0-∞): 1660 ng·h/mL
- Tmax ([2]; human, plasma, po, 7.5 mg, single 7.5 mg oral dose, empty stomach, moderate hepatic impairments (Child-Pugh: grade B), read-out: median of Tmax): 2 h
- half-life ([2]; human, plasma, po, 7.5 mg, single 7.5 mg oral dose, empty stomach, normal liver function, read-out: arithmetic mean of t1/2 (converted)): 34.6 h
- AUC(0-t) ([2]; human, plasma, po, 7.5 mg, single 7.5 mg oral dose, empty stomach, normal liver function, read-out: geometric mean of AUC0-t): 874 ng·h/mL
- AUC(0-inf) ([2]; human, plasma, po, 7.5 mg, single 7.5 mg oral dose, empty stomach, normal liver function, read-out: geometric mean of AUC0-∞): 929 ng·h/mL
- Tmax ([2]; human, plasma, po, 7.5 mg, single 7.5 mg oral dose, empty stomach, normal liver function, read-out: median of Tmax): 8 h
- AUC(0-t) ([2]; human, plasma, po, 7.5 mg, single 7.5 mg oral dose, fasted, mild hepatic impairment (n = 8), GeoMean (% CVb), read-out: AUC0-t): 1060 ng·h/mL
- AUC(0-inf) ([2]; human, plasma, po, 7.5 mg, single 7.5 mg oral dose, fasted, mild hepatic impairment (n = 8), GeoMean (% CVb), read-out: AUC0-∞): 1120 ng·h/mL
- Cmax ([2]; human, plasma, po, 7.5 mg, single 7.5 mg oral dose, fasted, mild hepatic impairment (n = 8), GeoMean (% CVb), read-out: Cmax): 62.4 ng/mL
- half-life ([2]; human, plasma, po, 7.5 mg, single 7.5 mg oral dose, fasted, mild hepatic impairment (n = 8), Mean ± SD, read-out: t1/2 (converted)): 32.2 ± 7.28 h
- Tmax ([2]; human, plasma, po, 7.5 mg, single 7.5 mg oral dose, fasted, mild hepatic impairment (n = 8), Median (Min-Max), read-out: Tmax): 2 h
- AUC(0-t) ([2]; human, plasma, po, 7.5 mg, single 7.5 mg oral dose, fasted, moderate hepatic impairment (n = 8), GeoMean (% CVb), read-out: AUC0-t): 1580 ng·h/mL
- AUC(0-inf) ([2]; human, plasma, po, 7.5 mg, single 7.5 mg oral dose, fasted, moderate hepatic impairment (n = 8), GeoMean (% CVb), read-out: AUC0-∞): 1660 ng·h/mL
- Cmax ([2]; human, plasma, po, 7.5 mg, single 7.5 mg oral dose, fasted, moderate hepatic impairment (n = 8), GeoMean (% CVb), read-out: Cmax): 82.8 ng/mL
- half-life ([2]; human, plasma, po, 7.5 mg, single 7.5 mg oral dose, fasted, moderate hepatic impairment (n = 8), Mean ± SD, read-out: t1/2 (converted)): 36.3 ± 11.9 h
- Tmax ([2]; human, plasma, po, 7.5 mg, single 7.5 mg oral dose, fasted, moderate hepatic impairment (n = 8), Median (Min-Max), read-out: Tmax): 2 h
- AUC(0-t) ([2]; human, plasma, po, 7.5 mg, single 7.5 mg oral dose, fasted, normal liver function group (n = 8), GeoMean (% CVb), read-out: AUC0-t): 874 ng·h/mL
- AUC(0-inf) ([2]; human, plasma, po, 7.5 mg, single 7.5 mg oral dose, fasted, normal liver function group (n = 8), GeoMean (% CVb), read-out: AUC0-∞): 929 ng·h/mL
- Cmax ([2]; human, plasma, po, 7.5 mg, single 7.5 mg oral dose, fasted, normal liver function group (n = 8), GeoMean (% CVb), read-out: Cmax): 36.8 ng/mL
- half-life ([2]; human, plasma, po, 7.5 mg, single 7.5 mg oral dose, fasted, normal liver function group (n = 8), Mean ± SD, read-out: t1/2 (converted)): 34.6 ± 11.9 h
- Tmax ([2]; human, plasma, po, 7.5 mg, single 7.5 mg oral dose, fasted, normal liver function group (n = 8), Median (Min-Max), read-out: Tmax): 8 h
- AUC0-t increase [2, 5]: 21.73%
- AUC0-∞ increase [2, 5]: 20.16%
- Cmax increase [2, 5]: 70.39%
- AUC0-t increase [2, 6]: 71.21%
- AUC0-∞ increase [2, 6]: 73.06%
- Cmax increase [2, 6]: 104.72%
- half-lives compared between groups ([2]; normal, mild and moderate hepatic impairment groups): substantially identical half-lives
- CL/F [2, 7]: 6.72(41.5) L/h
- Cmax [2, 7]: 62.6(42.2) ng/mL
- V/F [2, 7]: 304(45.6) L
- CL/F [2, 8]: 4.66(58.8) L/h
- V/F [2, 8]: 233(69.7) L
- CL/F [2, 9]: 8.07(101.6) L/h
- V/F [2, 9]: 372(60.3) L
- platelet counts after administration compared to the baseline (platelet counts): trend towards higher platelet counts compared to the baseline
- effect of hepatic impairments on plasma protein binding rate (plasma protein): did not significantly affect
